Measured values taken from publication PMC3115942 (PLoS ONE, 2011).

Tests used:
THLE-2 cells = assay: Passage growth assay, THLE-2; type: cell-based; settings: 5 µM
Method: (§1) 20,000 cells were seeded per well in 6 well plates (triplicates) with DMSO or 5 µM MS-0022. Treatment medium was changed on day 3–5, and after 5–7 days the cells were trypsinized, re-suspended in medium and counted, before reseeding cells at 20,000/well for a subsequent passage. The average growth of MS-0022 treated cells was calculated as a percentage of the growth of the DMSO control at the end of each passage. Graphs display average of percent growth with standard deviation bars (n = 3).

[1] = system: PANC-1, SUIT-2, PC-3 and FEMX cells; assay: In vitro antiproliferative assay (MTS), tumor cell lines; type: cell-based, human; settings: 10 µM, 4 day exposure; across PANC-1, SUIT-2, PC-3 and FEMX
Method: (§2) Cells were plated at a density of 3000 (THLE-2 and PC-3) and 1000 (PANC-1, SUIT-2 and FEMX) cells per well (on the basis of their growth rate) in 200 µl of medium in a 96-well plate. Medium was changed daily, and after four days, the assay was read using a MTS kit (Promega) according to the instructions of the manufacturer. Graphs display average of percent growth with standard deviation (n = 8).

PANC-1 cells [2] = assay: Passage growth assay, PANC-1; type: cell-based, human; settings: 5 µM, passages of 5–7 days
Method: as §1

[3] = system: GLI1 mRNA in PANC-1 cells; assay: Real time PCR of GLI1 mRNA in PANC-1; type: cell-based, human; settings: 5 µM, 48 hrs
Method: (§3) Cells were lysed for RNA extraction after 48 or 72 hours of treatment. Total RNA from cultured cells or tumor tissue was isolated using the GeneElute miniprep kit (Sigma-Aldritch) following the manufacturer^'s instructions. cDNA was synthesized from the isolated mRNA using the Retroscript kit (Ambion), and real-time PCR was carried out using the SYBR Green PCR master mix (Stratagene) according to the manufacturer^'s instructions with an Mx3000P cycler (Stratagene). The relative concentrations of cDNA present in each sample were calculated by the MxPro software (Stratagene), normalized for GAPDH (mRNA from cells) or GUS (mRNA from tumors). For real time PCR primer sequences see Table 6. For the tumor tissue real time PCR, previously described human and mouse specific primers against GUSB, PTCH1 and GLI1were used.

SUIT-2 cells = assay: Soft agar colony formation assay, SUIT-2; type: cell-based, human; settings: 14 days
Method: (§4) 2000 PANC-1 or SUIT-2 cells were suspended in 1.5 mL growth media containing 0.35% agar (Oxoid), over a 1.5 mL base layer containing 0.5% agar in 6-well plates. The plates were incubated for 14 days (SUIT-2) and 21 days (PANC-1) and then stained for 1 h with 1 ml of 0.02% crystal violet (Sigma-Aldrich), and colonies were counted according to sizes; <0.2 mm (small), 0.2–1 mm (medium) and >1 mm (large). Data represent average numbers with standard deviation bars (n = 3). The experiments have been repeated with similar result.

PANC-1 cells [4] = assay: Soft agar colony formation assay, PANC-1; type: cell-based, human; settings: 21 days
Method: as §4

[5] = system: Gli1 or Gli2 (GliBS-Luc, NIH3T3 cells); assay: GliBS-Luc reporter in NIH3T3 cells with forced Gli1 or Gli2 expression; type: cell-based; settings: 10 µM, 48 hours
Method: Vectors were obtained from the following: GliBS-Luc reporter (gift from H. Sasaki), pBluescript (pBS) (Stratagene), FL-HA-GLI1 (Gli1) and Gli2-GFP (Gli2) (gifts from R. Toftgård), Super8XTOPFlash, and NFkB-luc (Panomics). 10 ng renilla luciferase (pRL-TK) (Promega) was used as a transfection control. HEK293 and NIH3T3 cells were seeded at 80,000 per well in 48-well plates on day 1, and were co-transfected on day 2 using a total of 0.4 µg plasmid per well mixed at 1∶3 in FUGENE6 according to manufacturer^'s instructions. On day 3, control medium and activating medium (50% L1 conditioned medium, 50% Shh conditioned medium or medium containing 10 ng/mL recombinant rcrTNF-α (R&D Systems)) +/− 10–20 µM MS-0022 were added, using DMSO as a control (the NFkB pathway inhibitor Bay11-7082 was used as a control in the NFkB assay). Samples were analyzed on day 4 or 5 using the Dual Luciferase assay kit according to manufacturer^'s instructions. Graphs display relative or fold reporter activity, and are calculated from a mean ratio of firefly reporter luminescence/pRL-TK luminescence with standard deviation error bars (n = 3). The experiments have been repeated with similar results.

[6] = system: Gli1 mRNA expression in Ptch−/− MEF; assay: Real time PCR of Gli1 mRNA in Ptch−/− MEF; type: cell-based, mouse; settings: 5 µM, 48 hours
Method: as §3

[7] = Liver transaminases (AST/ALT) in xenografted mice; type: in vivo, mouse; settings: 50 mg/kg, 30 days injection scheme (5 day injection, 2 day pause), PANC-1 xenograft mice
Method: For PANC-1 xenografts, 4–6 week old CB17/SCID mice were injected with 5×10^6 PANC-1 (n = 6 per group) cells in 200 µl PBS subcutaneously on day 1. IP treatment with 50 mg/kg MS-0022 began when median tumor size reached 25 mm^2 (day 27). MS-0022 was pulverized using a pestle, and was mixed into a stable suspension in water containing 1% Tween 80 (Sigma-Aldrich). Mice were treated with MS-0022 or solvent for a period of 30 days after initiation in a 5 day injection 2 day pause scheme, and tumor size was measured throughout using calipers (mm^2). After 30 days the mice were sacrificed and tumors dissected and weighed. The PANC-1 xenograft endpoint was taken two days after the last compound treatment.
Blood was collected from the hepatic vein of freshly sacrificed animals into heparinized capillary blood collection tubes (Sarstedt), which were immediately centrifuged and the serum was collected. AST and ALT were run on non-hemolyzed samples using AST and ALT kits (Randox) following the manufacturer^'s instructions.

PC-3 cells = assay: In vitro antiproliferative assay (MTS), PC-3; type: cell-based, human; settings: 4 day
Method: as §2

[8] = system: Gli1 mRNA expression in Sufu−/− MEF; assay: Real time PCR of Gli1 mRNA in Sufu−/− MEF; type: cell-based, mouse; settings: 10 µM, 72 hours
Method: as §3

[9] = Compound concentration in mouse liver tissue; type: in vivo; settings: C57BL, 5 mg/kg, 2 hours after IP administration

Cc1cccn2cc(-c3ccc(NC(=O)c4ccccc4Br)cc3)nc12 [MS-0022, 2-bromo-N-(4-(8-methylimidazo[1,2-a]pyridin-2-yl)phenyl)benzamide]
growth by the second passage, THLE-2 (THLE-2 cells): not affected | growth reduction (MTS) [1]: 40%–70% | growth reduction after passage 2, PANC-1 (PANC-1 cells [2]): 80% | GLI1 mRNA levels, PANC-1 [3]: without reducing GLI1 mRNA levels | soft agar colony formation, SUIT-2 (SUIT-2 cells): reduction in large (Figure 2C–D, and G) and medium sized colonies | soft agar colony formation, PANC-1 (PANC-1 cells [4]): reduction in large (Figure 2C–D, and G) and medium sized colonies | inhibition of Gli1 or Gli2 when pathway further activated by Shh ([5]; 50% Shh conditioned medium): partial inhibition | Hh pathway inhibitory effect at the level of forced Gli1 or Gli2 expression ([5]; without Shh): not detected | Gli1 mRNA expression in Ptch−/− MEFs [6]: reduced Gli1 mRNA expression | AST/ALT levels [7]: greater than 1 | growth (MTS), PC-3 (PC-3 cells): growth was only reduced by MS-0022 | reduction of relative Gli1 mRNA levels in Sufu−/− MEFs [8]: 50% | concentration at 2 h [9]: 244 ng/g
